Measurements published in ChEMBL document CHEMBL3885861, “Open TG-GATES”.

Species: Rattus norvegicus
Test: Open TG-GATES - Regimen: Daily Repeat
Type: toxicity, organism-based, Sprague-Dawley
Design: regimen Daily Repeat, gender Male, age 6 weeks
Settings: in vivo, po, 0 mg/kg, route gavage, dose level Control; for APTT / Bas / Eos / Fbg / Hb / Ht / Lym / MCH / MCHC / MCV / Mono / Neu / PT / Plat / RBC / Ret / WBC: tissue Blood; for KIDNEY_L / KIDNEY_R / KIDNEY_TOTAL: tissue Kidney; for LIVER: tissue Liver; for A/G / ALP / ALT / AST / BUN / CRE / Ca / Cl / DBIL / GLC / IP / K / LDH / Na / PL / RALB / TBIL / TC / TG / TP / gamma-GTP: tissue Plasma

## CN1C(=O)CCS(=O)(=O)C1c1ccc(Cl)cc1 (configuration not stated) [CHLORMEZANONE]
72 h, time 3 day
  TERMINAL_BW: 227.8 g
  APTT: 15.7 s
  Bas: 0%
  Eos: 1%
  Fbg: 283.6 mg/dL
  Hb: 13.4 g/dL
  Ht: 39.1%
  Lym: 77.8%
  MCH: 22.1 pg
  MCHC: 34.4%
  MCV: 64.3 fL
  Mono: 3%
  Neu: 17.8%
  PT: 12 s
  Plat: 114.7 x10_4/uL
  RBC: 608.2 x10_4/ul
  Ret: 6.7%
  WBC: 81.1 x10_2/uL
  KIDNEY_L: 0.9 g
  KIDNEY_R: 0.9 g
  KIDNEY_TOTAL: 1.8 g
  LIVER: 10.6 g
  A/G: 0.9
  ALP: 1545.4 IU/L
  ALT: 48.4 IU/L
  AST: 68.2 IU/L
  BUN: 14.6 mg/dL
  CRE: 0.2 mg/dL
  Ca: 10.9 mg/dL
  Cl: 108.4 meq/L
  DBIL: 0.01 mg/dL
  GLC: 193.6 mg/dL
  IP: 6.7 mg/dL
  K: 4.2 meq/L
  LDH: 63.4 IU/L
  Na: 143.4 meq/L
  PL: 148.4 mg/dL
  RALB: 2.7 g/dL
  TBIL: 0.026 mg/dL
  TC: 88.8 mg/dL
  TG: 90 mg/dL
  TP: 5.8 g/dL
  gamma-GTP: 1.2 IU/L
[…], time 7 day
  TERMINAL_BW: 269.2 g
  APTT: 17.6 s
  Bas: 0%
  Eos: 0.8%
  Fbg: 294.6 mg/dL
  Hb: 13.9 g/dL
  Ht: 41%
  Lym: 79.4%
  MCH: 22.1 pg
  MCHC: 33.9%
  MCV: 65.3 fL
  Mono: 2.4%
  Neu: 16.6%
  PT: 11.9 s
  Plat: 113.1 x10_4/uL
  RBC: 627.6 x10_4/ul
  Ret: 6.5%
  WBC: 91.2 x10_2/uL
  KIDNEY_L: 1 g
  KIDNEY_R: 1 g
  KIDNEY_TOTAL: 2.1 g
  LIVER: 13 g
  A/G: 0.9
  ALP: 1745 IU/L
  ALT: 44 IU/L
  AST: 68.2 IU/L
  BUN: 16.6 mg/dL
  CRE: 0.2 mg/dL
  Ca: 11.6 mg/dL
  Cl: 107.8 meq/L
  DBIL: 0.016 mg/dL
  GLC: 181.4 mg/dL
  IP: 6.9 mg/dL
  K: 4.3 meq/L
  LDH: 89.8 IU/L
  Na: 144 meq/L
  PL: 152 mg/dL
  RALB: 2.8 g/dL
  TBIL: 0.034 mg/dL
  TC: 82.6 mg/dL
  TG: 121.6 mg/dL
  TP: 6 g/dL
  gamma-GTP: 1 IU/L
[…], time 14 day
  TERMINAL_BW: 301.6 g
  APTT: 16.9 s
  Bas: 0%
  Eos: 1%
  Fbg: 306.8 mg/dL
  Hb: 14.5 g/dL
  Ht: 41.2%
  Lym: 76.2%
  MCH: 20.7 pg
  MCHC: 35.3%
  MCV: 58.8 fL
  Mono: 2%
  Neu: 20.4%
  PT: 11.8 s
  Plat: 123 x10_4/uL
  RBC: 701 x10_4/ul
  Ret: 3.5%
  WBC: 70.8 x10_2/uL
  KIDNEY_L: 1.2 g
  KIDNEY_R: 1.1 g
  KIDNEY_TOTAL: 2.3 g
  LIVER: 12.6 g
  A/G: 0.8
  ALP: 1484.4 IU/L
  ALT: 48 IU/L
  AST: 63.8 IU/L
  BUN: 14.4 mg/dL
  CRE: 0.2 mg/dL
  Ca: 11.2 mg/dL
  Cl: 107.8 meq/L
  DBIL: 0.008 mg/dL
  GLC: 191.6 mg/dL
  IP: 6.3 mg/dL
  K: 4 meq/L
  LDH: 47 IU/L
  Na: 143.6 meq/L
  PL: 136.4 mg/dL
  RALB: 2.8 g/dL
  TBIL: 0.064 mg/dL
  TC: 70.8 mg/dL
  TG: 74.8 mg/dL
  TP: 6.1 g/dL
  gamma-GTP: 1 IU/L
[…], time 28 day
  TERMINAL_BW: 393 g
  APTT: 17.9 s
  Bas: 0%
  Eos: 1%
  Fbg: 293.6 mg/dL
  Hb: 15 g/dL
  Ht: 42.2%
  Lym: 75.4%
  MCH: 20.2 pg
  MCHC: 35.5%
  MCV: 56.8 fL
  Mono: 2.4%
  Neu: 20.6%
  PT: 11.8 s
  Plat: 99.4 x10_4/uL
  RBC: 744.8 x10_4/ul
  Ret: 2.6%
  WBC: 82.8 x10_2/uL
  KIDNEY_L: 1.4 g
  KIDNEY_R: 1.3 g
  KIDNEY_TOTAL: 2.7 g
  LIVER: 16 g
  A/G: 0.8
  ALP: 1035.2 IU/L
  ALT: 45.6 IU/L
  AST: 62.8 IU/L
  BUN: 14 mg/dL
  CRE: 0.3 mg/dL
  Ca: 10.8 mg/dL
  Cl: 106.2 meq/L
  DBIL: 0.006 mg/dL
  GLC: 183.2 mg/dL
  IP: 6 mg/dL
  K: 4 meq/L
  LDH: 57 IU/L
  Na: 142.4 meq/L
  PL: 143.6 mg/dL
  RALB: 2.8 g/dL
  TBIL: 0.062 mg/dL
  TC: 74.8 mg/dL
  TG: 88 mg/dL
  TP: 6.3 g/dL
  gamma-GTP: 1 IU/L
